Measured values reported in the NIST ThermoML archive (doi:10.1016/j.jct.2010.09.005).
Several values for one entry are separate records, joined by “and”; a condition that tells them apart may be missing. Equal entries are not always repeated. ± gives the expanded uncertainty stated by the source.

Columns and labels:
[1] = molar enthalpy of vaporization or sublimation; conditions: 298.15 K, vacuum sublimation
[2] = Crystal, Calculated from knudsen effusion weight loss

Row | molar enthalpy ([1]; Liquid) [kcal/mol] | molar enthalpy ([1]; Crystal) [kcal/mol] | SMILES | vapor or sublimation pressure ([2]; 293.25 K) | vapor or sublimation pressure ([2]; 295.17 K) | vapor or sublimation pressure ([2]; 297.09 K) | vapor or sublimation pressure ([2]; 299.21 K) | vapor or sublimation pressure ([2]; 301.16 K) | vapor or sublimation pressure ([2]; 303.08 K) | vapor or sublimation pressure ([2]; 305.19 K) | vapor or sublimation pressure ([2]; 307.16 K) | vapor or sublimation pressure ([2]; 309.09 K)
1 | 15.8 ± 0.717 |  | CC(=O)c1cc(Cl)ccc1Cl [2',5'-dichloroacetophenone] |  |  |  |  |  |  |  |  | 
2 |  | 15.2 ± 0.669 | CC(=O)c1ccc(Cl)cc1Cl [2',4'-dichloroacetophenone] |  |  |  |  |  |  |  |  | 
3 |  | 21.7 ± 0.765 | CC(=O)c1ccc(Cl)c(Cl)c1 [3',4'-dichloroacetophenone] | 0.0001703 ± 8.5e-06 kPa and 0.0001647 ± 8.3e-06 kPa and 0.0001655 ± 8.3e-06 kPa | 0.0002238 ± 1.1e-05 kPa and 0.0002145 ± 1.1e-05 kPa and 0.000213 ± 1.1e-05 kPa | 0.0002738 ± 1.4e-05 kPa and 0.0002832 ± 1.4e-05 kPa and 0.0002774 ± 1.4e-05 kPa | 0.0003484 ± 1.7e-05 kPa and 0.0003522 ± 1.8e-05 kPa and 0.0003546 ± 1.8e-05 kPa | 0.0004547 ± 2.3e-05 kPa and 0.0004516 ± 2.3e-05 kPa and 0.0004492 ± 2.3e-05 kPa | 0.0005694 ± 2.9e-05 kPa and 0.0005819 ± 2.9e-05 kPa and 0.0005785 ± 2.9e-05 kPa | 0.0007368 ± 3.7e-05 kPa and 0.0007202 ± 3.6e-05 kPa and 0.0007224 ± 3.6e-05 kPa | 0.000944 ± 4.7e-05 kPa and 0.0009302 ± 4.7e-05 kPa and 0.0009113 ± 4.6e-05 kPa | 0.001174 ± 0.00012 kPa and 0.001186 ± 0.00012 kPa and 0.001176 ± 0.00012 kPa
